# Data published in patent US6908919B2, “Substituted polycyclic aryl and heteroaryl pyrazinones useful for selective inhibition of the coagulation cascade” (Pharmacia Corporation, priority 1999, dated 2005).
# Where two headings read alike, the source gives them in different places.
# How the values were obtained:
# [1] = target: T1, recombinant soluble tissue factor and recombinant human factor VIIa (TF-VIIa) (Homo sapiens, UniProt P08709); assay: TF-VIIa Assay; format: biochemical
# T1 construct: conversion of coagulation factor VII to VIIa by Xa; purchased American Diagnostica, Greenwich Conn; host or cells: VIIa purchased; soluble TF made in house in E. coli
# Human thrombin = Human thrombin (Homo sapiens, UniProt P00734); assay: biochemical
# Human factor Xa = Human factor Xa (Homo sapiens, UniProt P00742); assay: Xa Assay; format: biochemical; set-up: purchased Enzyme Research Laboratories, South Bend Ind; details: for % Inhibition Factor Xa at 100 μM / inhibition at 100 µM: at 100 μM inhibitor
# Chain of Human factor Xa (P00742 41-179 limits assumed): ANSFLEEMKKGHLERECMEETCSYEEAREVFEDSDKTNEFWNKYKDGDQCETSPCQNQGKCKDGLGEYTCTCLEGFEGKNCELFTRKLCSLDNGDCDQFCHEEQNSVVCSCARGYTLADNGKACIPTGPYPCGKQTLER
# Chain of Human factor Xa (P00742 235-488 limits assumed): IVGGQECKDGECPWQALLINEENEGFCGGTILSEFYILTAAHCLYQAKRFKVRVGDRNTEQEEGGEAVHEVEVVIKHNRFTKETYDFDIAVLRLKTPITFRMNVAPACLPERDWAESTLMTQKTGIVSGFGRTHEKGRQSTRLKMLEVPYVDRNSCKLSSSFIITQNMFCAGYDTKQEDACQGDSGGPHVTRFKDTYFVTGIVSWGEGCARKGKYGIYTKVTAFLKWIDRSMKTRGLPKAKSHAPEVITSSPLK
# T1 sequence (P08709 61-212 limits assumed): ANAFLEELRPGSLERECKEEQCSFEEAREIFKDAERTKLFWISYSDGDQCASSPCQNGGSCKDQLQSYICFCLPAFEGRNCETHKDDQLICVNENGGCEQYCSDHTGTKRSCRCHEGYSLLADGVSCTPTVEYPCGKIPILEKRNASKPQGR
# T1 sequence (P08709 213-466 limits assumed): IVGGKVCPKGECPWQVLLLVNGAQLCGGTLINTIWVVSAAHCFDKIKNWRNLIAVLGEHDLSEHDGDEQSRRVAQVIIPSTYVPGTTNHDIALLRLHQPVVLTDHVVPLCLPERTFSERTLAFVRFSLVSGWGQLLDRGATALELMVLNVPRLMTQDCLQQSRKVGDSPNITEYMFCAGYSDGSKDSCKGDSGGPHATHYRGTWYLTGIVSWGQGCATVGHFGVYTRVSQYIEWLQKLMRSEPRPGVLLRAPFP
# T1 sequence (P13726 33-251 partner limits assumed): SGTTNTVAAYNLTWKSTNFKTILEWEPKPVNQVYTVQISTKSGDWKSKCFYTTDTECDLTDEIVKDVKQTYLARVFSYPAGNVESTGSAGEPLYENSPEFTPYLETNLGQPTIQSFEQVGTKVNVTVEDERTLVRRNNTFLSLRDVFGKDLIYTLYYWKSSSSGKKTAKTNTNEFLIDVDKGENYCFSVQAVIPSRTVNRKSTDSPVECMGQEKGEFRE
compound,measurement,setting,value
N=C(N)c1ccc(CNC(=O)Cn2c(-c3ccc(N)cc3)c(Cl)nc(NC3CCC3)c2=O)cc1 [Example 115],IC50,[1]; read-out: IC50 TF-VIIa,0.55 µM
same,IC50,Human thrombin,7.5 µM
same,% Inhibition Factor Xa (30 µM),Human factor Xa; at 30 µM inhibitor,10%
CC(C)Nc1nc(Cl)c(-c2cc(N)cc(C(=O)NCc3cccnc3)c2)n(CC(=O)NCc2ccc(C(=N)N)cc2)c1=O [Example 128-18],IC50,[1]; read-out: IC50 TF-VIIa,0.0185 µM
same,inhibition at 100 µM,Human thrombin; read-out: % Inhibition Thrombin II at 100 μM,21%
N=C(N)c1ccc(CCC(=O)Cn2c(-c3cccc(N)c3)c(Cl)nc(NC3CCC3)c2=O)cc1 [Example 142],IC50,[1]; read-out: IC50 TF-VIIa,0.2 µM
same,IC50,Human thrombin,4.6 µM
Nc1cccc(-c2c(Cl)nc(NC3CCC3)c(=O)n2CC(=O)NCc2ccc3[nH]cnc3c2)c1 [Example 146],IC50,Human thrombin,> 30 µM
same,% Inhibition Factor Xa (30 µM),Human factor Xa; at 30 µM inhibitor,5%
N=C(N)c1ccc(CNC(=O)Cn2c(-c3ccc(-c4ccccc4)cc3)c(Cl)nc(NCCc3cccc(Cl)c3)c2=O)cc1 [1471-70],% Inhibition TF-VIIa (30 µM),[1]; at 30 µM inhibitor,10%
same,% Inhibition Factor Xa (30 µM),Human factor Xa; at 30 µM inhibitor,12%
O=C(Cn1c(CCc2ccccc2)c(Cl)nc(NCc2ccccc2)c1=O)NCCc1ccncc1 [Example E-0065],% Inhibition TF-VIIa (100 µM),[1]; inhibitor at 100 µM,0%
same,% Inhibition Factor Xa (100 µM),Human factor Xa; inhibitor at 100 µM,0%
O=C(Cn1c(-c2ccc3c(c2)OCO3)c(Cl)nc(NCCN2CCOCC2)c1=O)NCCc1ccncc1 [Example E-0047],% Inhibition TF-VIIa (100 µM),[1]; inhibitor at 100 µM,0%
same,% Inhibition Factor Xa (100 µM),Human factor Xa; inhibitor at 100 µM,0%
CC(C)Nc1nc(Cl)c(-c2cc(N)cc(C(=O)NCc3ccc(Br)cc3)c2)n(CC(=O)NCc2ccc(C(=N)N)cc2)c1=O [Example 128-8],IC50,[1]; read-out: IC50 TF-VIIa,0.067 µM
same,% Inhibition Factor Xa at 100 μM,Human factor Xa,44% at 100 μM
O=C(Cn1c(-c2ccc3c(c2)OCO3)c(Cl)nc(NCc2ccncc2)c1=O)NCCc1ccncc1 [Example E-0048],% Inhibition TF-VIIa (100 µM),[1]; inhibitor at 100 µM,0%
same,% Inhibition Factor Xa (100 µM),Human factor Xa; inhibitor at 100 µM,0%
CC(C)Nc1nc(Cl)c(-c2cccc([N+](=O)[O-])c2)n(CC(=O)NCc2ccc(C(N)=NO)cc2)c1=O [Example 61],% Inhibition TF-VIIa (30 µM),[1]; at 30 µM inhibitor,1%
same,% Inhibition Factor Xa (30 µM),Human factor Xa; at 30 µM inhibitor,0%
O=C(Cn1c(-c2cccc(Cl)c2)c(Cl)nc(NCc2ccccc2)c1=O)NCCc1cccnc1 [Example E-0074],% Inhibition TF-VIIa (100 µM),[1]; inhibitor at 100 µM,0%
same,% Inhibition Factor Xa (100 µM),Human factor Xa; inhibitor at 100 µM,0%
O=C(Cn1c(-c2ccc(-c3ccccc3)cc2)c(Cl)nc(NCCc2ccc(Cl)cc2)c1=O)NCCc1ccncc1 [Example E-0052],% Inhibition TF-VIIa (100 µM),[1],0%
same,% Inhibition Factor Xa (100 µM),Human factor Xa,0%
CC(C)Nc1nc(Cl)c(-c2cc(N)cc(C(=O)NCc3ccc(C(C)(C)C)cc3)c2)n(CC(=O)NCc2ccc(C(=N)N)cc2)c1=O [Example 128-7],IC50,[1]; read-out: IC50 TF-VIIa,0.242 µM
same,inhibition at 100 µM,Human factor Xa,40%
O=C(Cn1c(-c2ccc(-c3ccccc3)cc2)c(Cl)nc(NCCc2ccccc2)c1=O)NCCc1ccncc1 [Example E-0050],% Inhibition TF-VIIa (100 µM),[1],0%
same,% Inhibition Factor Xa (100 µM),Human factor Xa,0%
COc1ccc(-c2c(Cl)nc(NCCc3cccc(Cl)c3)c(=O)n2CC(=O)NCCc2cccnc2)cc1 [Example E-0104],% Inhibition TF-VIIa (100 µM),[1]; inhibitor at 100 µM,3%
same,% Inhibition Factor Xa (100 µM),Human factor Xa; inhibitor at 100 µM,5%
O=C(Cn1c(CCc2ccccc2)c(Cl)nc(NCCN2CCOCC2)c1=O)NCCc1ccncc1 [Example E-0071],% Inhibition TF-VIIa (100 µM),[1]; inhibitor at 100 µM,0%
same,% Inhibition Factor Xa (100 µM),Human factor Xa; inhibitor at 100 µM,0%
C[C@H](Nc1nc(Cl)c(-c2cccc(N)c2)n(CC(=O)NCc2ccc(C(=N)N)cc2)c1=O)C(=O)O [Example 135],IC50,[1]; read-out: IC50 TF-VIIa,6.4 µM
same,% Inhibition Factor Xa at 100 μM,Human factor Xa,6% at 100 μM
COc1ccc(-c2c(Cl)nc(NCCc3ccc(Cl)cc3)c(=O)n2CC(=O)NCCc2ccncc2)cc1 [Example E-0106],% Inhibition TF-VIIa (100 µM),[1]; inhibitor at 100 µM,5%
same,% Inhibition Factor Xa (100 µM),Human factor Xa; inhibitor at 100 µM,3%
N=C(N)c1ccc(CNC(=O)Cn2c(-c3ccccc3)c(Cl)nc(NCc3cccc(OC(F)(F)F)c3)c2=O)cc1 [1512-40],% Inhibition TF-VIIa (30 µM),[1]; at 30 µM inhibitor,40%
same,% Inhibition Factor Xa (30 µM),Human factor Xa; at 30 µM inhibitor,3%
O=C(Cn1c(Cc2ccccc2)c(Cl)nc(NCCc2cccc(Cl)c2)c1=O)NCCc1ccncc1 [Example E-0059],% Inhibition TF-VIIa (100 µM),[1]; inhibitor at 100 µM,0%
same,% Inhibition Factor Xa (100 µM),Human factor Xa; inhibitor at 100 µM,0%
O=C(Cn1c(-c2ccc3c(c2)OCO3)c(Cl)nc(NCCc2ccc(Cl)cc2)c1=O)NCCc1ccncc1 [Example E-0044],% Inhibition TF-VIIa (100 µM),[1]; inhibitor at 100 µM,0%
same,% Inhibition Factor Xa (100 µM),Human factor Xa; inhibitor at 100 µM,0%
N=C(N)c1ccc(CNC(=O)Cn2c(-c3ccc(-c4ccccc4)cc3)c(Cl)nc(NCCc3ccccc3)c2=O)cc1 [1471-71],% Inhibition TF-VIIa (30 µM),[1]; at 30 µM inhibitor,6%
same,% Inhibition Factor Xa (30 µM),Human factor Xa; at 30 µM inhibitor,0%
O=C(Cn1c(-c2ccc(Cl)cc2)c(Cl)nc(NCc2ccccc2)c1=O)NCCc1ccncc1 [Example E-0025],% Inhibition TF-VIIa (100 µM),[1]; inhibitor at 100 µM,0%
same,% Inhibition Factor Xa (100 µM),Human factor Xa; inhibitor at 100 µM,0%
N=C(N)c1ccc(CNC(=O)Cn2c(-c3ccc(-c4ccccc4)cc3)c(Cl)nc(NCCc3cccnc3)c2=O)cc1 [Example 21],% Inhibition TF-VIIa (30 µM),[1],8% @ 30
same,% Inhibition Factor Xa (30 µM),Human factor Xa,21% @ 30
COc1ccc(CCNC(=O)c2cc(N)cc(-c3c(Cl)nc(NC(C)C)c(=O)n3CC(=O)NCc3ccc(C(=N)N)cc3)c2)cc1 [Example 128-20],IC50,[1]; read-out: IC50 TF-VIIa,0.033 µM
same,inhibition at 100 µM,Human factor Xa,39%
O=C(Cn1c(-c2ccc(-c3ccccc3)cc2)c(Cl)nc(NCCc2cccnc2)c1=O)NCCc1ccncc1 [Example E-0053],% Inhibition TF-VIIa (100 µM),[1],0%
same,% Inhibition Factor Xa (100 µM),Human factor Xa,0%
N=C(N)c1ccc(CNC(=O)Cn2c(-c3ccc(-c4ccccc4)cc3)c(Cl)nc(NCCc3ccc(Cl)cc3)c2=O)cc1 [Example 22],% Inhibition TF-VIIa (30 µM),[1],0% @ 30
same,% Inhibition Factor Xa (30 µM),Human factor Xa,13% @ 30
N=C(N)c1ccc(CNC(=O)Cn2c(-c3ccc(-c4ccccc4)cc3)c(Cl)nc(NCCc3cccnc3)c2=O)cc1 [1471-72],% Inhibition TF-VIIa (30 µM),[1]; at 30 µM inhibitor,15%
same,% Inhibition Factor Xa (30 µM),Human factor Xa; at 30 µM inhibitor,22%
COc1ccc(-c2c(Cl)nc(NCc3ccncc3)c(=O)n2CC(=O)NCCc2ccncc2)cc1 [Example E-0040],% Inhibition TF-VIIa (100 µM),[1]; inhibitor at 100 µM,0%
same,% Inhibition Factor Xa (100 µM),Human factor Xa; inhibitor at 100 µM,0%
CC(CC(=O)O)Nc1nc(Cl)c(-c2cccc(N)c2)n(CC(=O)NCc2ccc(C(=N)N)cc2)c1=O (stereo not shown) [Example 130],IC50,"[1]; read-out: IC50 TF-VIIa, cell printed 'at 100 μM' without %, cell adds 'at 100 μM'",0.18 µM
same,% Inhibition Factor Xa at 100 μM,Human factor Xa,24% at 100 μM
N=C(N)c1ccc(CNC(=O)C(Cc2ccccc2)n2c(-c3ccccc3)c(Cl)nc(NCCc3cccc(Cl)c3)c2=O)cc1 (stereo not shown) [Example 1517-20],% Inhibition TF-VIIa (30 µM),[1]; at 30 µM,22%
same,% Inhibition Factor Xa (30 µM),Human factor Xa; at 30 µM,0%
O=C(Cn1c(-c2cccc(Cl)c2)c(Cl)nc(NCCc2ccccc2)c1=O)NCCc1cccnc1 [Example E-0089],% Inhibition TF-VIIa (100 µM),[1]; inhibitor at 100 µM,3%
same,% Inhibition Factor Xa (100 µM),Human factor Xa; inhibitor at 100 µM,4%
CC(C)Nc1nc(Cl)c(-c2cc(N)cc(C(=O)NC(C)c3ccccc3)c2)n(CC(=O)NCc2ccc(C(=N)N)cc2)c1=O (stereo not shown) [Example 128-3],IC50,[1]; read-out: IC50 TF-VIIa,0.0082 µM
same,inhibition at 100 µM,Human factor Xa,40%
